In patent US20090186853A1, “COMPOSITIONS COMPRISING N-PROPANOYL DERIVATIVES OF AMINO ACIDS, AMINOCARBOHYDRATES AND DERIVATIVES THEREOF” (priority 2005, published 2009):

Experiments:
[1] = test system: forearm skin (aging / photoaging skin); experiment: Forearm skin thickness measured by micrometer calipers after topical application; type: in vivo, human; conditions: 10% solution twice daily; for appearance of treated forearm skin compared with untreated forearm: at end of treatment (6 to 9 weeks)
Procedure: Skin thickness was measured by micrometer calipers to study skin changes associated with aging as follows: The skin was grasped with a 2×6 cm metal hinge, the internal faces of that were coated with emery cloth to prevent slippage, and manually squeezed to threshold subject discomfort. Combined thickness of two whole-skin layers including thickness of the two hinge leaves was measured with micrometer calipers. Thickness of the two hinge leaves was subtracted to determine the actual thickness of two whole-skin layers. Triplicate measurements on treated sites were done and an average number was used for calculation of the skin thickness. N-Propanoyl-D-glucosamine 10 g was dissolved in 90 ml solution prepared from water 40 parts, ethanol 40 parts and propylene glycol 20 parts by volume. The formulation thus prepared had pH 6.0 and contained 10% N-propanoyl-D-glucosamine solution.

[2] = test system: fine wrinkles (crow's feet); experiment: Topical treatment of fine wrinkles (crow's feet) near the eyes; type: in vivo, human; conditions: 5% cream of Example 7, topical twice daily, five weeks, person
Procedure: For subjective disorders such as pain, itch, or the like, the therapeutic effects were evaluated or judged by the subjects or patients. For example, the subjects evaluated whether the pain or itch had disappeared within hours or days. For other detectable symptoms or syndromes, the therapeutic effects or improvements were evaluated or judged by medical professionals. A subject, applied topically twice daily 5% N-propanoyl-D-glucosamine cream as formulated in Example 7 to fine wrinkles (crow's feet) near the eyes for five weeks.

[3] = test system: itchy lesion due to atopic eczema; experiment: Topical treatment of itch from atopic eczema in a human subject; type: in vivo; conditions: 5% cream
Procedure: For subjective disorders such as pain, itch, or the like, the therapeutic effects were evaluated or judged by the subjects or patients. For example, the subjects evaluated whether the pain or itch had disappeared within hours or days. For other detectable symptoms or syndromes, the therapeutic effects or improvements were evaluated or judged by medical professionals. N-Propanoyl-D-glucosamine 5 g was dissolved in water 15 ml and propylene glycol 5 ml, and the solution thus obtained was mixed uniformly with hydrophilic ointment or oil-in-water emulsion 75 g. The cream thus formulated had pH 4.7 and contained 5% N-propanoyl-D-glucosamine. A subject, having an itchy lesion on their right foot due to atopic eczema, topically applied the above cream to the lesion. […] A human subject having itchy skin from atopic eczema topically applied 5% N-propanoyl-glucosamine cream to the lesion.

Question: What does the source list for CCC(=O)N[C@H]1C(O)O[C@H](CO)[C@@H](O)[C@@H]1O (stereo partly drawn) [N-propanoyl-D-glucosamine, N-Propanoyl-D-glucosamine]?
Answer: appearance of treated forearm skin compared with untreated forearm [1]: firmer, smooth, plump and minimally wrinkled when lifted; appearance of treated forearm skin compared with untreated forearm ([1]; listed as N-propanoyl-glucosamine): firmer, smooth, plump, minimally wrinkled when lifted; increase in skin thickness ([1]; left forearm, person, after 4 weeks): 8%; increase in skin thickness ([1]; left forearm, person, after 5 weeks): 19%; increase in skin thickness ([1]; left forearm, person, after 6 weeks): 23%; increase in skin thickness ([1]; left forearm, person, after 8 weeks): 33%; increase in skin thickness ([1]; left forearm, person, after 9 weeks): 28%; increase in skin thickness ([1]; left forearm, subject with photoaging skin, 8 weeks): 33%; increase in skin thickness ([1]; right forearm, person, after 4 weeks): 13%; increase in skin thickness ([1]; right forearm, person, after 6 weeks): 27%; change of wrinkles [2]: wrinkles improved significantly; time skin remained free of itch ([3]; single topical application to atopic eczema lesion): 12 h; itch after topical application ([3]; topical to atopic eczema lesion, a few minutes after application): the itch disappeared completely
